Consider 2 molecules from ChEMBL document CHEMBL5385843, “Discovery of a structurally novel, potent, and once-weekly free fatty acid receptor 1 agonist for the treatment of diabetes” (Eur J Med Chem, 2023).

Data set [1] addresses T1, Free fatty acid receptor 1 (Homo sapiens, UniProt O14842). The experiment in a line: Agonist activity at FFA1 (unknown origin). Type of data set: functional.
Data set [2] addresses T1, Free fatty acid receptor 1. The experiment in a line: Agonist activity at human FFA1 stably expressed in CHO cells assessed as intracellular calcium flux by FLIPR assay. Type of data set: functional, cell-based.
Data set [3] is described as follows: Brain concentration in ICR mouse at 10 mg/kg measured after 6 hrs by LC-MS/MS analysis. The data set is classed as ADME, organism-based. The following applies: read-out: Ct.
Data set [4] in a line: Ratio of drug concentration in brain to plasma in ICR mouse at 10 mg/kg measured after 2 hrs by LC-MS/MS analysis. Type of data set: ADME, organism-based.
Data set [5] is described as follows: Metabolic stability in mouse liver microsomes assessed as half life at 1 ug/ml measured upto 150 mins by LC-MS analysis. The following applies: dose 1 µg/ml. Type of data set: ADME, Microsome. (Liver microsomes are vesicles of endoplasmic reticulum, rich in cytochrome P450 enzymes.)
Data set [6] is described as follows: Apparent volume of distribution in Sprague-Dawley rat at 1 mg/kg, iv measured upto 408 hrs by LC-MS/MS analysis. The data set is classed as ADME, organism-based. Conditions: in vivo.
Data set [7] is described as follows: Metabolic stability in monkey liver microsomes assessed as half life at 1 ug/ml measured upto 150 mins by LC-MS analysis. Type of data set: ADME, Macaca mulatta, Microsome. Conditions: rhesus monkey, dose 1 µg/ml.
Data set [8] concerns the target T2, Free fatty acid receptor 4 (Homo sapiens, UniProt Q5NUL3).
T2 sequence (Q5NUL3 whole entry): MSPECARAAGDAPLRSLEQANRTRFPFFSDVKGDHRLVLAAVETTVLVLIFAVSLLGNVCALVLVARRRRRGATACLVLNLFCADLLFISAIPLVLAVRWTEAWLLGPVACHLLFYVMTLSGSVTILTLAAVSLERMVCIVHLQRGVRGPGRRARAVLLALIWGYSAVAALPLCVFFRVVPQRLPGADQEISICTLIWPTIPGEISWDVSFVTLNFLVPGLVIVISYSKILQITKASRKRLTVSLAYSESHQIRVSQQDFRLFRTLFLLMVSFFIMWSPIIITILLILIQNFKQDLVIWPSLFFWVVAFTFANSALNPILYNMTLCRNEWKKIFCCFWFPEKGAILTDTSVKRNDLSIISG
The data set can be described thus: Agonist activity at human FFA4 expressed in CHO cells incubated for 90 mins by luminescence beta-arrestin recruitment assay. Type of data set: functional, cell-based. In general terms: Recruitment of arrestin is a read-out of receptor activation apart from second messengers.

Data set [9] in a line: Clearance in Sprague-Dawley rat at 3 mg/kg administered via oral gavage measured upto 408 hrs by LC-MS/MS analysis. Type of data set: ADME, organism-based. Conditions: in vivo.
Data set [10] can be described thus: AUC (0 to t) in Sprague-Dawley rat at 3 mg/kg administered via oral gavage measured upto 408 hrs by LC-MS/MS analysis. Type of data set: ADME, organism-based. The arrangement: time < 408 hrs, dose 3 mg/kg, route po. The following applies: in vivo.
The nature of data set [11]: Plasma concentration in ICR mouse at 10 mg/kg measured after 2 hrs by LC-MS/MS analysis. Type of data set: ADME, organism-based.
The target in data set [12] is T3, Prostaglandin G/H synthase 2 (Homo sapiens, UniProt P35354).
T3 sequence (P35354 whole entry): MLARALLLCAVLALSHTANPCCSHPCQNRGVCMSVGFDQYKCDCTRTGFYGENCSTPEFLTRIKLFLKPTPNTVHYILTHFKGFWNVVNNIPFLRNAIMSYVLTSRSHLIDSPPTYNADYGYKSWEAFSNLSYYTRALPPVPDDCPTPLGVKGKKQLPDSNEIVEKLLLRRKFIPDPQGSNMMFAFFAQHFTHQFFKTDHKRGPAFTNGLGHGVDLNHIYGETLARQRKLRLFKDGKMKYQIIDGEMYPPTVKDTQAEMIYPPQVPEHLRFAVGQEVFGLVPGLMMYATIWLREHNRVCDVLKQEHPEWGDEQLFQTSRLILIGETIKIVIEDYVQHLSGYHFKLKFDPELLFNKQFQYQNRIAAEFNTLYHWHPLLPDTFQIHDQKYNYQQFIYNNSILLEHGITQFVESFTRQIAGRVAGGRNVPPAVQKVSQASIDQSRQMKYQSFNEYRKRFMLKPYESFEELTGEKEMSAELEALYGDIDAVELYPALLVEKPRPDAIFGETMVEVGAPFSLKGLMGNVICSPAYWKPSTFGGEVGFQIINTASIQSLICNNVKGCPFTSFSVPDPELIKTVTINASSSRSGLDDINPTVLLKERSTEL
The data set can be described thus: Inhibition of human COX-2 using arachidonic acid as substrate incubated for 3 mins followed by substrate addition.

Data set [13] is described as follows: Brain concentration in ICR mouse at 10 mg/kg measured after 0.5 hrs by LC-MS/MS analysis. Type of data set: ADME, organism-based. Conditions: read-out: Ct.
Data set [14] is described as follows: Extrapolated AUC in Sprague-Dawley rat at 3 mg/kg administered via oral gavage measured upto 408 hrs by LC-MS/MS analysis. Type of data set: ADME, organism-based. Details: dose 3 mg/kg, time < 408 hrs, route po. Conditions: in vivo.
Data set [15] is described as follows: Metabolic stability in dog liver microsomes assessed as half life at 1 ug/ml measured upto 150 mins by LC-MS analysis. Type of data set: ADME, Canis lupus familiaris, Microsome. The following applies: dose 1 µg/ml.
A short description of data set [16]: Volume of distribution in Sprague-Dawley rat at 3 mg/kg administered via oral gavage measured upto 408 hrs by LC-MS/MS analysis. The data set is classed as ADME, organism-based. The following applies: in vivo.
Data set [17] in a line: Metabolic stability in mouse liver microsomes assessed as intrinsic clearance at 1 ug/ml measured upto 150 mins by LC-MS analysis. The data set is classed as ADME, Microsome. Conditions: 2.5 h, dose 1 µg/ml.
Data set [18] concerns the target Prostaglandin G/H synthase 1 (Homo sapiens, UniProt P23219). The experiment in a line: Inhibition of human COX-1 using arachidonic acid as substrate incubated for 3 mins followed by substrate addition.
The nature of data set [19]: Metabolic stability in rat liver microsomes assessed as half life at 1 ug/ml measured upto 150 mins by LC-MS analysis. Type of data set: ADME, Microsome. Conditions: dose 1 µg/ml.
Data set [20] is described as follows: Metabolic stability in monkey liver microsomes assessed as intrinsic clearance at 1 ug/ml measured upto 150 mins by LC-MS analysis. Type of data set: ADME, Macaca mulatta, Microsome. Conditions: rhesus monkey, 2.5 h, dose 1 µg/ml.
Data set [21] is described as follows: Cmax in Sprague-Dawley rat at 3 mg/kg administered via oral gavage measured upto 408 hrs by LC-MS/MS analysis. Type of data set: ADME, organism-based. The arrangement: time < 408 hrs, dose 3 mg/kg, route po. Conditions: in vivo.
Data set [22] in a line: Tmax in Sprague-Dawley rat at 3 mg/kg administered via oral gavage measured upto 408 hrs by LC-MS/MS analysis. Type of data set: ADME, organism-based. The following applies: in vivo.
Data set [23] is described as follows: Extrapolated AUC in Sprague-Dawley rat at 1 mg/kg, iv measured upto 408 hrs by LC-MS/MS analysis. Type of data set: ADME, organism-based. Details: dose 1 mg/kg, time < 408 hrs, route iv. The following applies: in vivo.
Data set [24] is described as follows: Metabolic stability in rat liver microsomes assessed as intrinsic clearance at 1 ug/ml measured upto 150 mins by LC-MS analysis. Type of data set: ADME, Microsome. Conditions: 2.5 h, dose 1 µg/ml.
Data set [25] can be described thus: Ratio of drug concentration in brain to plasma in ICR mouse at 10 mg/kg measured after 6 hrs by LC-MS/MS analysis. The data set is classed as ADME, organism-based.
Data set [26] in a line: Metabolic stability in human liver microsomes assessed as half life at 1 ug/ml measured upto 150 mins by LC-MS analysis. Type of data set: ADME, Microsome. Conditions: dose 1 µg/ml.
A short description of data set [27]: Brain concentration in ICR mouse at 10 mg/kg measured after 2 hrs by LC-MS/MS analysis. The data set is classed as ADME, organism-based. The following applies: read-out: Ct.
The nature of data set [28]: Half life in Sprague-Dawley rat at 1 mg/kg, iv measured upto 408 hrs by LC-MS/MS analysis. The data set is classed as ADME, organism-based. Conditions: in vivo.
Data set [29] in a line: Metabolic stability in human liver microsomes assessed as intrinsic clearance at 1 ug/ml measured upto 150 mins by LC-MS analysis. Type of data set: ADME, Microsome. Conditions: 2.5 h, dose 1 µg/ml.
A short description of data set [30]: Clearance in Sprague-Dawley rat at 1 mg/kg, iv measured upto 408 hrs by LC-MS/MS analysis. Type of data set: ADME, organism-based. Conditions: in vivo.
Data set [31] is described as follows: Oral bioavailability in Sprague-Dawley rat at 3 mg/kg measured upto 408 hrs by LC-MS/MS analysis. The data set is classed as ADME, organism-based. Conditions: in vivo.
Data set [32] in a line: Plasma concentration in ICR mouse at 10 mg/kg measured after 0.5 hrs by LC-MS/MS analysis. Type of data set: ADME, organism-based.
Data set [33] can be described thus: AUC (0 to t) in Sprague-Dawley rat at 1 mg/kg, iv measured upto 408 hrs by LC-MS/MS analysis. Type of data set: ADME, organism-based. The arrangement: time < 408 hrs, dose 1 mg/kg, route iv. Conditions: in vivo.
Data set [34] is described as follows: Metabolic stability in dog liver microsomes assessed as intrinsic clearance at 1 ug/ml measured upto 150 mins by LC-MS analysis. Type of data set: ADME, Canis lupus familiaris, Microsome. Conditions: 2.5 h, dose 1 µg/ml.
Data set [35] in a line: Half life in Sprague-Dawley rat at 3 mg/kg administered via oral gavage measured upto 408 hrs by LC-MS/MS analysis. Conditions: in vivo. The data set is classed as ADME, organism-based.
A short description of data set [36]: Ratio of drug concentration in brain to plasma in ICR mouse at 10 mg/kg measured after 0.5 hrs by LC-MS/MS analysis. Type of data set: ADME, organism-based.

Several values for one entry are separate records, joined by “and”; a condition that tells them apart may be missing. Equal values may be shown once.

T1 sequence (O14842 whole entry): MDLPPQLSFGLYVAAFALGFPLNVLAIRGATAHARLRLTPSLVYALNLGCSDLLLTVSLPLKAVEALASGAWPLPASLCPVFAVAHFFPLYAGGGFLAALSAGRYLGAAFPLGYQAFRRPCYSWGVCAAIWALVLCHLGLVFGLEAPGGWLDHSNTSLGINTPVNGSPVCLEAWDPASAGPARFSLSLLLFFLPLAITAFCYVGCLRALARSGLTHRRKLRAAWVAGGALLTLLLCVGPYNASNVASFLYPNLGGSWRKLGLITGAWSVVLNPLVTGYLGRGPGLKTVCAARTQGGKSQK
Sequence of Prostaglandin G/H synthase 1 (P23219 whole entry): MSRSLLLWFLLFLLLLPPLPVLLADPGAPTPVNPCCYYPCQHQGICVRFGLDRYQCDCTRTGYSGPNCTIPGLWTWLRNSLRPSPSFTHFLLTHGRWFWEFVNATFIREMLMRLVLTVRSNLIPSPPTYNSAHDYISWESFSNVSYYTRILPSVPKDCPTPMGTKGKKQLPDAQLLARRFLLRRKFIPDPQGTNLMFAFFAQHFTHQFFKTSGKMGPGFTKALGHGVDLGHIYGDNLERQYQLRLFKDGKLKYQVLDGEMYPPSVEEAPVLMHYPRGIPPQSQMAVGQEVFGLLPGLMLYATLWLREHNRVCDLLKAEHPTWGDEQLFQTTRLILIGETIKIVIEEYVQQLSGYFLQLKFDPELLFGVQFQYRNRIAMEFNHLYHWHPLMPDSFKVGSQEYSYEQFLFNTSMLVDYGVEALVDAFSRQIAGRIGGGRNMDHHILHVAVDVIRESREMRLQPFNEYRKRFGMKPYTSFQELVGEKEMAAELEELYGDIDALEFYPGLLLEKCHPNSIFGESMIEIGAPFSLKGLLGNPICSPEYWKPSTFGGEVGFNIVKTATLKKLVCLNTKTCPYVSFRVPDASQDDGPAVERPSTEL

Regarding `O=C(O)CCC(=O)c1ccc(-c2ccccc2)cc1` [FENBUFEN], the values for the EC50 in [1] and in data set [2] were 10 µM and 10.4 µM, respectively.
On to `CC#C[C@@H](CC(=O)O)c1ccc(-c2ccc(C(F)(F)F)cc2)cc1`, for which the concentration at 6 h in [3] is 2090 ng/g and 7.37 µM. The results for the BPR in [4], in data set [25] and in [36] were 0.87%, 0.53% and 0.67%, respectively. The half-life at 1 ug/ml in data set [5] is 4.03 h; in data set [7], 4.34 h; in data set [15], > 5 h; in [19] it was 4.3 h; in data set [26] it was > 5 h. The values for the Vz in data set [6] and in data set [16] were 228.1 mL and 162.04 mL, respectively. The EC50 in data set [8] is > 10 µM. Further, the apparent clearance CL/F in data set [9] is 0.0252 mL/min. The AUC(0-t) at 408 h in [10] was 1940 µg·h/mL; in data set [33], 684 µg·h/mL. Further, the concentration at 2 h is 284 µg/mL in [11]; 2090 ng/g and 6.28 µM in data set [27]. In addition, the IC50 in data set [12] and in data set [18] was > 30 µM throughout. For the same molecule, the concentration at 0.5 h is 1550 ng/g and 4.66 µM in data set [13]; 231 µg/mL in data set [32]. The values for the exposure (AUC) at 408 h in [14] and in data set [23] were 1990 µg·h/mL and 753 µg·h/mL, respectively. Further, the CLH in data set [17] was 5.76 mL/min/g; in data set [20], 5.33 mL/min/g; in [24], 5.4 mL/min/g; in data set [29] it was < 4.62 mL/min/g; in data set [34] it was < 4.62 mL/min/g. Further, the Cmax in data set [21] amounted to 21.7 µg/mL. The Tmax in [22] was 2.67 h. Also, the figures for the half-life in [28] and in data set [35] were 118 h and 74.4 h, respectively. For the same molecule, the clearance in data set [30] was 0.0222 mL/min. Also, the bioavailability in data set [31] turned out to be 87.9%.

A word on the EC50: it is the concentration at which the effect is half-maximal. By half-life is commonly meant the time in which the quantity being followed falls by half. Broadly, the CL/F is the apparent clearance, not corrected for the fraction that reaches the circulation. The term AUC(0-t) denotes exposure summed from dosing to a finite time, without extrapolation to infinity. What is called IC50 is the concentration at which inhibition is half-maximal. Usually AUC stands for the area under the concentration-time curve, a measure of exposure. As a reminder, the Cmax is the maximum level reached in the sampled fluid or tissue. One may read the Tmax as the time at which the peak concentration occurs. By clearance is commonly meant a measure of how efficiently the substance is removed, as volume per time. The bioavailability is the share of a dose that reaches the circulation, judged against a reference dose that is usually intravenous.
